Patent US12448398B2, “Semi-synthetic analogues of epipolythiodioxopiperazine alkaloids” (Ohio State Innovation Foundation, priority 2019, dated 2025)

Key:
[1] = tested on: panel of cancer cell lines; conditions: cited from earlier work
[2] = tested on: metastatic colon carcinoma; conditions: combined treatment of 3 and 5-fluorouracil; cited from earlier work
MLL1 = MLL1 (Homo sapiens, UniProt Q03164); conditions: in pancreatic cancer; cited from earlier work
[3] = tested on: PANC02-H7 or UN-KC-6141 cells; conditions: combination of 3 and anti PD-L1; cited from earlier work
[4] = tested on: MDA-MB-435, MDA-MB-231 and OVCAR3 cells; assay: Cytotoxicity assay against a panel of three cancer cell lines (CellTiter 96 AQueous, 72 h); assay type: cell-based, human; conditions: panel MDA-MB-435, MDA-MB-231, OVCAR3; relative to parent natural product
Description: (§1) Human melanoma cancer cells (MDA-MB-435), human breast cancer cells (MDA-MB-231) and human ovarian cancer cells (OVCAR3) were obtained from the American Type Culture Collection (Manassas, VA). The cell lines were cultured in RPMI 1640 medium containing fetal 10% bovine serum, 100 unites/mL penicillin and 100 μg/mL streptomycin. The cells were grown at 37° C. under 5% CO2, and then harvested during the log-phase growth by trypsinization followed by two washing to remove all traces of enzymes. Cells were seeded in 96-well clear, flat-bottom plate (Microtest 96, Falcon) at a density of 5000 cells per well. Each plate was incubated overnight at 37° C. under 5% CO2. Samples dissolved in DMSO were diluted and added to the appropriate wells to give final concentrations of 20, 4, 0.8, 0.16, and 0.032 μM for pure compounds, and a total volume of 100 μL and 0.5% DMSO per well. The cells with the test samples were then incubated for 72 h at 37° C. Cell viability was examined using a commercial absorbance assay (CellTiter 96® AQueous One Solution Cell Proliferation Assay, Promega Corp, Madison, WI). IC50 values were determined as the concentration required to diminish cellular growth by 50% compared to the untreated controls after 72 h of continuous exposure. Taxol (Paclitaxel) was used as a positive control.
Human melanoma cancer cells (MDA-MB-435), human breast cancer cells (MDA-MB-231) and human ovarian cancer cells (OVCAR3) were produced from the American Type Culture Collection (Manassas, VA). RPMI 1640 medium (fetal 10% bovine serum, 100 unites/mL penicillin and 100 μg/mL streptomycin) was used to culture cell lines. The cells were grown at 37° C. under 5% CO2, then harvested during the log-phase growth by trypsinization followed by two washing to remove all traces of enzymes. 96-well clear, flat-bottom plate (Microtest 96, Falcon) was used to seed the cells at a density of 5000 cells per well. […] Cell viability was examined using a commercial absorbance assay (CellTiter 96® AQueous One Solution Cell Proliferation Assay, Promega Corp, Madison, WI). […]

MDA-MB-231 cells = assay: Cytotoxicity assay, human breast cancer cells; assay type: cell-based; conditions: vs verticillin H
Description: as §1, with “The cells with the test samples were then incubated for 72 h at 37° C.” left out, “IC50 values were determined as the concentration required to diminish cellular growth by 50% compared to the untreated controls after 72 h of continuous exposure. Taxol (Paclitaxel) was used as a positive control.” left out
(§2) Human melanoma cancer cells (MDA-MB-435), human breast cancer cells (MDA-MB-231) and human ovarian cancer cells (OVCAR3) were produced from the American Type Culture Collection (Manassas, VA). […] Cell viability was examined using a commercial absorbance assay (CellTiter 96® AQueous One Solution Cell Proliferation Assay, Promega Corp, Madison, WI). […]

OVCAR3 cells = assay: Cytotoxicity assay, human ovarian cancer cells; assay type: cell-based; conditions: vs verticillin H
Description: as §1, with “The cells with the test samples were then incubated for 72 h at 37° C.” left out, “IC50 values were determined as the concentration required to diminish cellular growth by 50% compared to the untreated controls after 72 h of continuous exposure. Taxol (Paclitaxel) was used as a positive control.” left out
as §2

Chain of MLL1 (Q15291 whole entry): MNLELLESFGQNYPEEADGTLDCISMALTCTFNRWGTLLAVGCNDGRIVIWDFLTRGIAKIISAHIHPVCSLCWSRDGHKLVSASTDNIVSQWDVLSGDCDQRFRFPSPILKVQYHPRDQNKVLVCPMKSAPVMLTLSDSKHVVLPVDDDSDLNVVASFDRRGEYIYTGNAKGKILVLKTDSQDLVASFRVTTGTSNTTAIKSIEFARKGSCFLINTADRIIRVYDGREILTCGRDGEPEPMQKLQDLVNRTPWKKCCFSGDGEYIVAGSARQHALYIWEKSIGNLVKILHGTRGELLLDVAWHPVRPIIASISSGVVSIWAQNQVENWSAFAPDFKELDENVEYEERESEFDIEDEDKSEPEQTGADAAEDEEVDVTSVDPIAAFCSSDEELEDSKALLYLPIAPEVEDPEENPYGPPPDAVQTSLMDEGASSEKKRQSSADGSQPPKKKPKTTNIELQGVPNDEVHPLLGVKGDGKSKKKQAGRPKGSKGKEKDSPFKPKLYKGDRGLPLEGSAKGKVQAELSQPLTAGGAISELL
Chain of MLL1 (Q9UBL3 96-628, further chain): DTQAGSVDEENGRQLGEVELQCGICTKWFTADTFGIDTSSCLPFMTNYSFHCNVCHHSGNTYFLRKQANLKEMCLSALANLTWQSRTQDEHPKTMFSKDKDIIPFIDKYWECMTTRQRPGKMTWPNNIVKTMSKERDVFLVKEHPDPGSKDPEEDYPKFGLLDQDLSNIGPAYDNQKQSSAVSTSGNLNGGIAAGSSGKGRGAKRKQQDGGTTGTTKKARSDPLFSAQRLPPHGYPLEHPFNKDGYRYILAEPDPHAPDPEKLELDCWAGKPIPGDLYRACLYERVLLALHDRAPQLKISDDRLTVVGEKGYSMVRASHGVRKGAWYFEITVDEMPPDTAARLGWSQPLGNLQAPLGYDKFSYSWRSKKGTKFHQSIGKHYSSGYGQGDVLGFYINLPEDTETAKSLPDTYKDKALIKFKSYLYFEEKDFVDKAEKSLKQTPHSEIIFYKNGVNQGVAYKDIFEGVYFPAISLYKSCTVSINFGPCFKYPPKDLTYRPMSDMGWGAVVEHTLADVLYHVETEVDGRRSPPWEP
Chain of MLL1 (Q03164 3745-3969): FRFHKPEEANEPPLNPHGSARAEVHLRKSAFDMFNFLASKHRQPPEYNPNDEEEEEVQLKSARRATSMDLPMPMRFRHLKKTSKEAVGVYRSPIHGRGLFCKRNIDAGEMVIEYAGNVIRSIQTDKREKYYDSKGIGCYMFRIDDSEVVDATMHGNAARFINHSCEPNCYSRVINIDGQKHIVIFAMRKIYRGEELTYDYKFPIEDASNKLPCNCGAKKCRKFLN

CN1C(=O)C23SSC1(C)C(=O)N2C1Nc2ccccc2C1(C12c4ccccc4NC1N1C(=O)C4(C)SSC1(C(=O)N4C)C2O)C3O (centres unmarked) [Compound 3, verticillin A]
Cytotoxicity level, in words [1]: nanomolar cytotoxicity
Tumor size compared to control [2]: significantly smaller tumors
IC50 (MLL1): 800 nM
Tumor size [3]: significantly smaller tumor size

CCCC(=O)O[C@H]1[C@]2([C@@]34c5ccccc5N[C@@H]3N3C(=O)[C@]5(CC)SS[C@]3(C(=O)N5C)[C@H]4O)c3ccccc3N[C@@H]2N2C(=O)[C@]3(CC)SS[C@]12C(=O)N3C [Compound 12]
Potency compared with the parent compound, in words [4]: more potent

CC[C@@]12SS[C@]3(C(=O)N1C)[C@@H](O)[C@]1([C@@]45c6ccccc6N[C@@H]4N4C(=O)[C@]6(CC)SS[C@]4(C(=O)N6C)[C@H]5OC(=O)C(C)(C)C)c4ccccc4N[C@@H]1N3C2=O [Compound 14]
Potency compared with the parent compound, in words [4]: more potent

CCOC(=O)O[C@H]1[C@]2([C@@]34c5ccccc5N[C@@H]3N3C(=O)[C@]5(CC)SS[C@]3(C(=O)N5C)[C@H]4O)c3ccccc3N[C@@H]2N2C(=O)[C@]3(CC)SS[C@]12C(=O)N3C [Compound 16]
Potency compared with the parent compound, in words [4]: more potent
Fold increase of potency relative to parent compound (MDA-MB-231 cells): 4.4 fold

CC[C@@]12SS[C@]3(C(=O)N1C)[C@@H](O)[C@]1([C@@]45c6ccccc6N[C@@H]4N4C(=O)[C@]6(CC)SS[C@]4(C(=O)N6C)[C@H]5OS(=O)(=O)c4ccc(F)cc4)c4ccccc4N[C@@H]1N3C2=O [Compound 17]
Fold loss of potency relative to parent compound (MDA-MB-231 cells): 1.6 fold
Fold increase of potency relative to parent compound (OVCAR3 cells): 2.9 fold

CC[C@@]12SS[C@]3(C(=O)N1C)[C@@H](O)[C@]1([C@@]45c6ccccc6N[C@@H]4N4C(=O)[C@]6(CC)SS[C@]4(C(=O)N6C)[C@H]5OC(=O)N(C)C)c4ccccc4N[C@@H]1N3C2=O [Compound 19]
Fold increase of potency relative to parent compound (OVCAR3 cells): 12.0 fold
